Test results from patent US9988355B2, “Form A of mesylate for nicotinamide derivatives and preparation method and application thereof” (SHANGHAI SUNTRONG BIOTECHNOLOGY CO., LTD., priority 2014, dated 2018).
Counter-ions that a name gives are not always drawn.

Tests used:
Assay type in all cases: physicochemical
[1] = Solubility comparison of different crystal forms in water and ethanol
From the text: Embodiment 15. Solubility Comparison of Different Crystal Forms
The form A of mesylate for niacinamide derivatives prepared according to the method of the embodiment 4 and the needle solid of nicotinamide derivatives mesylate prepared according to the method of the embodiment 10 were respectively dissolved in water and ethanol, and solubility results were shown in Table 1.

[2] = Stability comparison of different crystal forms by solid-state representation means (XRPD), 6 months
Method: Embodiment 17. Stability Comparison of Different Crystal Forms Determined by Adopting Solid-State Representation Means
The form A of mesylate for niacinamide derivatives prepared according to the method of the embodiment 4 and the needles solid of nicotinamide derivatives mesylate prepared according to the method of the embodiment 10 were respectively put in the environment with light, high humidity (relative humidity (RH) is 90%), room temperature and high temperature (60° C.) for 6 months, XRPD determination was performed by adopting a solid-state representation means, and examination results were shown in Table 3.

[3] = Stability comparison of different crystal forms determined by HPLC, 6 months
Method: Embodiment 16. Stability Comparison of Different Crystal Forms Determined by HPLC
The form A of mesylate for niacinamide derivatives prepared according to the method of the embodiment 4 and the mesylate needles of nicotinamide derivatives prepared according to the method of the embodiment 10 were respectively put in the environment with light, high humidity (relative humidity (RH) is 90%), room temperature and high temperature (60° C.) for 6 months, the contents of related substances of the sample were determined by adopting HPLC, and examination results were shown in Table 2. HPLC testing conditions: chromatographic column Venusil MP-C18 (4.6 mm×250 mm, 5 μm, 100 Å); Mobile phase A: 0.1% acetum, B: acetonitrile, gradient conditions (0 min, 95% A; 20 min, 5% A; 25 min, 5% A; 30 min, 95% A); Detection wavelength 254 nm; Flowing speed 1 ml/min; Column temperature 30° C.; Sample amount 20 μl.

[4] = Hygroscopicity determination by TGA after storage at room temperature, humidity 40%
Method: Embodiment 11. Hygroscopicity Determination of the Contrast Needles Shape Solid of Nicotinamide Derivatives Mesylate
The obtained compound referred in a Chinese patent CN101676267 was 180.2 g of white needle-like crystals (0.365 mol) with the molecular weight being 493.5. It can thus be seen that the contrast needles shape solid of nicotinamide derivatives mesylate was anhydrate. The white needles of nicotinamide derivatives mesylate were prepared according to the method of […], and a DSC-TGA pattern of the needles as shown in FIG. 2 was obtained. Wherein, the testing conditions of differential scanning calorimetry (DSC) were 10° C./min with range of 30-300° C., and TGA testing conditions were 10° C./min from room temperature to 350° C. A proper amount of the needle samples of nicotinamide derivatives mesylate were placed at the room temperature under the humidity condition of 40%, and TGA detection was conducted on the solid respectively at the time intervals of 24 hours, 48 hours and 72 hours.

[5] = High-temperature, high-humidity and light stability of the crystal form, XRPD after 5 days
Method: Embodiment 14. Determination of High-Temperature Stability, High-Humidity Stability and Light Stability of the Mesylate Crystal Form A of Nicotinamide Derivatives of the Present Invention
The mesylate crystal form A of nicotinamide derivatives prepared according to the method of the embodiment 4 was tested.
(1) High-Temperature Stability
(2) High-Humidity Stability

Row | Compound | Water solubility [1] | Crystal form after storage (XRPD) ([2]; 60° C. for 6 months) | Crystal form after storage (XRPD) ([2]; Illuminating for 6 months) | Contents of related substances of the sample by HPLC ([3]; 60° C. for 6 months) [%] | Contents of related substances of the sample by HPLC ([3]; Illuminating for 6 months) [%] | Contents of related substances of the sample by HPLC ([3]; RH90% for 6 months) [%] | Contents of related substances of the sample by HPLC ([3]; Room temperature for 6 months) [%] | Hygroscopicity (conclusion in words) ([4]; 24-72 hours) | TGA weight loss after storage under humidity ([4]; 24 hours) [%] | TGA weight loss after storage under humidity ([4]; 48 hours) [%] | TGA weight loss after storage under humidity ([4]; 72 hours) [%] | High-humidity stability (XRPD compared with FIG. 1) ([5]; airtight container, humidity 92.5%) | High-temperature stability (XRPD compared with FIG. 1) ([5]; airtight drying oven of 60° C.) | Light stability (XRPD compared with FIG. 1) ([5]; transparent container, light 4500 lux) | Crystal form after storage (XRPD) ([2]; RH90% for 6 months) | Crystal form after storage (XRPD) ([2]; Room temperature for 6 months)
1 | N#CC1(c2ccc(NC(=O)c3cccnc3NCc3ccncc3)cc2)CCCC1 [Contrast needles, N-[4-(1-cyanocyclopentyl)phenyl]-2-(4-pyridylmethyl) amidogen-3-pyridineethanamine] | Insoluble | Unchanged | Unchanged | 98.2 | 99.4 | 98.8 | 99.2 | a certain hygroscopicity | 3.311 | 3.191 | 3.332 |  |  |  |  | 
2 | N#CC1(c2ccc(NC(=O)c3cccnc3NCc3ccncc3)cc2)CCCC1 [The form A of mesylate for niacinamide derivatives of the pr] [N-[4-(1-cyanocyclopentyl)phenyl]-2-(4-pyridylmethyl) amidogen-3-pyridineethanamine] | Insoluble | Unchanged | Unchanged | 98.1 | 99.6 | 98.5 | 99.4 |  |  |  |  | good stability in a high-humidity environment | good high-temperature stability | good light stability | Unchanged | Unchanged
